Experiment [1] relates to Staphylococcus aureus and Staphylococcus epidermidis. The experiment in a line: In vitro bactericidal activity assay, targeted staphylococci. The conditions noted are these: S. aureus and S. epidermidis. The format is cell-based. How it is done: The Ulp-1 protease-cleaved proteins were tested for antimicrobial assays against four strains of bacteria: Staphylococcus aureus, Staphylococcus epidermidis, Enterococcus faecalis and Bacillus subtilis. These four species were selected because they are gram positive and the AMPs plectasin and eurocin are specifically active against gram positive bacteria (Mygind et al. 2005, Oeemig et al. 2012). The component controls were free SUMO protein and synthetically produced A12C peptide. Vancomycin was used as the positive control. The standard protocol for a microtiter plate assay with serial dilution was used in which serial 2-fold dilutions of test peptide were made across a 96-well plate containing uniform bacterial inoculum across the peptide dilutions. After bacterial growth in the presence of peptide, cell viability was assayed with resazurin. Experiments with all peptides against all bacterial species were performed with >5 replicates each.

In experiment [2] the test system is H. pylori. Nature of the experiment: L. lactis/H. pylori co-culture and qPCR on VacA gene. The format is cell-based, Helicobacter pylori. The conditions noted are these: 24 h co-culture with L. lactis expressing AMP/gAMP; FIG. 10. The method, then: In the co-cultures, different dilutions of L. lactis were used but each well had 10 μl of H. pylori culture (˜3000 CFUs). The L. lactis secreted AMP, gAMP or contained an empty expression vector. Alyteserin and CRAMP were the AMPs tested. These were constructed either genetically fused to the multimerin-derived guide peptide (guide AMP or gAMP) or not (AMP). The amount of H. pylori present in the co-culture at any given time point was measured by qPCR, using primers specific for the VacA gene itself, which codes for the receptor protein to which the gAMP binds. The entire experiment was run in triplicate and the growth of H. pylori after 24 h in the presence of L. lactis expressing various AMPs or gAMPs is shown in FIG. 10.
L. lactis AMP/gAMP clones were propagated from glycerol stocks and grown in GM17 broth overnight with erythromycin (5 μg/ml) with no shaking. H. pylori stocks were first propagated on Blood-TS agar overnight with microaerobic condition and >5% CO2 environment. Then colonies from the plate were transferred to a TS broth with newborn calf serum (5%) and grown overnight under microaerobic condition and >5% CO2 environment. The L. lactis cultures were serially diluted in a 96-well culture plate with TSB broth to make up a volume of 100 μL. To each well, 10 μL of the overnight H. pylori culture was added and each well volume was brought up to 200 μL with more TS broth. The plate was left to grow overnight in a microaerobic environment with >5% CO2. After 24 h, well contents from the culture plate were transferred to a 96-well PCR plate. […] The qPCR was done using primers for VacA gene to quantify H. pylori (forward: 5′-[…]-3′ (SEQ ID NO:12), reverse: 5′-[…]-3′ (SEQ ID NO:13) and primers for acma gene for quantifying L. lactis. Standard curves for H. pylori and L. lactis were constructed by determining CT values for different dilutions of the overnight cultures of the respective bacteria (1/10, 1/100, 1/1000, 1/10000) in the qPCR plates, the CFUs for the dilutions were determined by plating on their respective agar plates.
In general terms: Quantitative PCR measures a nucleic acid by following its amplification.

Experiment [3] deals with H. pylori. Nature of the experiment: Prophylactic control of H. pylori in mice (qPCR of stomach fluid). The format is in vivo, mouse. The settings on record: Day 12; probiotic pre-treatment before H. pylori challenge; FIG. 15. The method, then:
(§1) The L. lactis cultures were propagated overnight as described above. The overnight cultures were spun down at 4000 g for 15 min at 4° C. The pellets were resuspended in sterile PBS. H. pylori stocks were grown overnight on Blood-TS agar as described above and then scraped by a sterile loop and resuspended in sterile PBS. The either bacterial suspension were fed to the mice using 1.5 ga oral gavage needle not exceeding half their stomach volume (˜250 μL). The colony forming units (CFUs) of the resuspension being fed were determined by diluting the resuspension 1/1000 and 1/10000 times and plating on appropriate plates. Pre- and post-inoculation samples from the mouse stomach were collected by flushing their stomach with excess PBS (˜300 μL) and the stomach fluid was collected by reversing the oral gavage injection until the vacuum was maintained.
The supernatants were collected and plated in a 96-well plate and qPCR was performed with primers for the VacA gene to quantify for H. pylori and primers for the acma gene to quantify for L. lactis. Standard curves for each bacterium against their CT values were constructed by including different dilutions of the overnight cultures of the respective bacteria (1/10, 1/100, 1/1000, 1/10000) in the qPCR and plating those dilutions on respective plates to determine the corresponding CFU values. Each data point represents at least 3 replicate mice. […]

Experiment [4] concerns H. pylori. Nature of the experiment: Therapeutic control of H. pylori in mice (qPCR of stomach fluid). The format is in vivo, mouse. The settings on record: at Day 10, within each AMP/gAMP pair.
Excerpt: These mice were inoculated with H. pylori and the H. pylori was allowed to establish itself in the mouse stomach for 3 days, with daily inoculations to ensure establishment. The mice were then given L. lactis secreting AMP or gAMP to therapeutically treat the H. pylori infection. Stomach samples were collected on Day 0 before H. pylori inoculation; resuspended H. pylori were fed by oral gavage once daily for 3 consecutive days; stomach samples were then collected on Day 5 to test for H. pylori presence and on Day 5 resuspended L. lactis were fed to the mice; subsequent stomach samples were collected on Day 8 and 10.
as §1
The supernatants were collected and plated in a 96-well plate and qPCR was performed with primers for the VacA gene to quantify for H. pylori and primers for the acma gene to quantify for L. lactis. Standard curves for each bacterium against their CT values were constructed by including different dilutions of the overnight cultures of the respective bacteria (1/10, 1/100, 1/1000, 1/10000) in the qPCR and plating those dilutions on respective plates to determine the corresponding CFU values. Each data point represents at least 3 replicate mice.
This was used to generate CFU/μl data from qPCR CT values in FIG. 14.

For another experiment, the system named is E. coli. Nature of the experiment: E. coli viability with supernatants of Lactococcus lactis broth cultures. The format is cell-based, Escherichia coli. The settings on record: L. lactis culture supernatant, 4 hours of exposure; FIG. 8. An excerpt: This is reported in FIG. 8 as the survival of E. coli in the presence of broth culture of Lactococcus lactis secreting antimicrobial peptide with or without a guide peptide. […] It should be noted that the legend is in reverse order of the lines, top to bottom, with the upper line in the graph being the buffer control and the lower line being vancomycin. To obtain the results shown in FIG. 8, cultures of Lactococcus lactis containing either the empty pT1bin1 vector, pT1bin1 harboring the antimicrobial peptide laterosporulin, or pT1bin1 harboring laterosporulin genetically fused to the guide peptide from multimerin were centrifuged to remove bacterial cells and the resulting supernatants were added to separate starter cultures of E. coli to check for inhibition of E. coli growth. The starter culture used supplying all replicates consisted of 500 μl of overnight culture of E. coli diluted in 50 ml of LB broth. […] E. coli viability was measured by plating onto LB agar plates the cultures in each well after 4 hours of exposure to supernatant or antibiotic. The resulting colonies appearing on the plates were recorded, with the undiluted buffer control treatment being set to 100% and all other treatments being converted to a fraction of this value, as plotted on the y-axis.

A further experiment concerns Lactobacillus plantarum. The experiment in a line: Off-target co-culture with L. lactis, qPCR. The format is cell-based. The settings on record: 24 hours; probiotic at 100,000/μl CFU level; FIG. 11. How it is done: L. lactis AMP/gAMP clones were propagated from glycerol stocks and grown in GM17 broth overnight with erythromycin (5 μg/ml) with no shaking. H. pylori stocks were first propagated on Blood-TS agar overnight with microaerobic condition and >5% CO2 environment. Then colonies from the plate were transferred to a TS broth with newborn calf serum (5%) and grown overnight under microaerobic condition and >5% CO2 environment. The L. lactis cultures were serially diluted in a 96-well culture plate with TSB broth to make up a volume of 100 μL. To each well, 10 μL of the overnight H. pylori culture was added and each well volume was brought up to 200 μL with more TS broth. The plate was left to grow overnight in a microaerobic environment with >5% CO2. After 24 h, well contents from the culture plate were transferred to a 96-well PCR plate. That PCR plate was sealed and heated for 15 min at 100° C. and chilled at 4° C. for 5 min. Then the plate was centrifuged at 2000 g for 2 min and the supernatant was used as the template for qPCR. The qPCR was done using primers for VacA gene to quantify H. pylori (forward: 5′-[…]-3′ (SEQ ID NO:12), reverse: 5′-[…]-3′ (SEQ ID NO:13) and primers for acma gene for quantifying L. lactis. Standard curves for H. pylori and L. lactis were constructed by determining CT values for different dilutions of the overnight cultures of the respective bacteria (1/10, 1/100, 1/1000, 1/10000) in the qPCR plates, the CFUs for the dilutions were determined by plating on their respective agar plates.
The experimental design was identical to that described above in Example 3, with the exception of the off-target bacterium replacing the targeted H. pylori. The off-target bacteria used were Lactobacillus plantarum (gram positive) and Escherichia coli (gram negative).

We go through 7 molecules from US20210052679A1, “PROBIOTIC DELIVERY OF GUIDED ANTIMICROBIAL PEPTIDES” (priority 2019, published 2021).

Turning to A12C-plectasin, the “toxicity/activity against targeted staphylococci” value in experiment [1] was “highly active”.
On to “Alyteserin (GLKDIFKAGLGSLVKGIAAHVAN; alyteserin AMP)”, for which the “H. pylori in co-culture (qPCR on VacA gene)” value (“H. pylori in co-culture” below) with H. pylori [2] is on record as “not very effective unless fused to the guide peptide”. Further, in the experiment on H. pylori [3], the “H. pylori in mouse stomach fluid” value was 2000 CFU/μl. In addition, in the experiment with H. pylori [4], the “more H. pylori with the AMP versus the gAMP” value was found to be 15 fold.
Consider “CRAMP (ISRLAGLLRKGGEKIGEKLKKIGQKIKNFFQKLVPQPE; cathelin-related anti-microbial peptide (CRAMP))”, for which the “H. pylori in co-culture” value in the experiment with H. pylori [2] is reported as “equally toxic”. Besides, the “more H. pylori with the AMP versus the gAMP” value in the experiment on H. pylori [4] amounted to 15 fold.
For “Laterosporulin (ACQCPDAISGWTHTDYQCHGLENKMYRHVYAICMNGTQVYCRTEWGSSC; laterosporulin AMP)”, the “more H. pylori with the AMP versus the gAMP” value in the experiment on H. pylori [4] came out at 2.5 fold. For the same molecule, in the experiment with E. coli, the “viability of E. coli vs empty vector baseline” value is “significant decrease in viability”.
On to “MM1-Alyteserin (MQKMTDQVNYQAMKLTLLQKSGGGSGLKDIFKAGLGSLVKGIAAHVAN; MM1-alyteserin gAMP)”, for which the “H. pylori in mouse stomach fluid” value with H. pylori [3] is 1500 CFU/μl. In the experiment with Lactobacillus plantarum, the “Lactobacillus plantarum level after co-culture” value (shortened to “Lactobacillus plantarum level”) is reported as 10,000 CFU/μl.

B1: MM1-Laterosporulin (protein)
chain: MQKMTDQVNYQAMKLTLLQKSGGGSACQCPDAISGWTHTDYQCHGLENKMYRHVYAICMNGTQVYCRTEWGSSC
modifications: MM1-laterosporulin gAMP
Turning to B1, the “viability of E. coli vs empty vector baseline” value in the experiment on E. coli was “no significant difference”. Further, the “Lactobacillus plantarum level” value in the experiment on Lactobacillus plantarum is given as 10,000 CFU/μl.

B2: MM1-CRAMP (protein)
chain: MQKMTDQVNYQAMKLTLLQKSGGGSISRLAGLLRKGGEKIGEKLKKIGQKIKNFFQKLVPQPE
modifications: MM1-CRAMP gAMP
B2: the “H. pylori in co-culture” value with H. pylori [2] is “equally toxic”. Further, the “Lactobacillus plantarum level” value in the experiment with Lactobacillus plantarum came out at 2500 CFU/μl.
